One assay has as its system bermudagrass. Description: Test C pre-/postemergence herbicide test. Format: in vivo, Cynodon dactylon. The text has this:
Seeds of plant species selected from blackgrass (Alopecurus myosuroides), ryegrass, Italian (Italian ryegrass, Lolium multiflorum), wheat (winter wheat, Triticum aestivum), galium (catchweed bedstraw, Galium aparine), corn (Zea mays), crabgrass, large (large crabgrass, Digitaria sanguinalis), foxtail, giant (giant foxtail, Setaria faberii), johnsongrass (Sorghum halepense), lambsquarters (Chenopodium album), morningglory (Ipomoea coccinea), nutsedge, yellow (yellow nutsedge, Cyperus esculentus), pigweed (Amaranthus retroflexus), ragweed (common ragweed, Ambrosia elatior), soybean (Glycine max), barnyardgrass (Echinochloa crus-galli), oilseed rape (Brassica napus), waterhemp (common waterhemp, Amaranthus rudis), kochia (Kochia scoparia), oat, wild (wild oat, Avena fatua), surinam grass (Brachiaria decumbens), foxtail, green (green foxtail, Setaria viridis), goosegrass (Eleusine indica), bromegrass, downy (downy bromegrass, Bromus tectorum), nightshade (eastern black nightshade, Solanum ptycanthum), cocklebur (common cocklebur, Xanthium strumarium), cupgrass, woolly (woolly cupgrass, Eriochloa villosa), bermudagrass (Cynodon dactylon), sunflower, (common oilseed sunflower, Helianthus annuus), Russian thistle (Salsola kali) and velvetleaf (Abutilon theophrasti) were planted into a blend of loam soil and sand and treated preemergence with test chemicals formulated in a non-phytotoxic solvent mixture which included a surfactant. At the same time, plants selected from these crop and weed species and also barley (winter barley, Hordeum vulgare), […]), chickweed (common chickweed, Stellaria media), deadnettle (henbit deadnettle, Lamium amplexicaule), and canarygrass (littleseed canarygrass, Phalaris minor) were planted in pots containing Redi-Earth® planting medium (Scotts Company, 14111 Scottslawn Road, Marysville, Ohio 43041) comprising spaghnum peat moss, vermiculite, wetting agent and starter nutrients and treated with postemergence applications of test chemicals formulated in the same manner. Plants ranged in height from 2 to 18 cm (1- to 4-leaf stage) for postemergence treatments. Treated plants and controls were maintained in a greenhouse for 13 to 15 days, after which time all species were compared to controls and visually evaluated. Plant response ratings, summarized in Table C, are based on a scale of 0 to 100 where 0 is no effect and 100 is complete control. A dash (-) response means no test result.

The test system of a further assay is beggarticks. The experiment in a line: Test E preemergence herbicide test. It counts as in vivo, Bidens pilosa. Also on record: key: 0 = no effect, 100 = complete control. From the text: (§1) Seeds of plant species selected from corn (Zea mays), soybean (Glycine max), velvetleaf (Abutilon theophrasti), lambsquarters (Chenopodium album), wild poinsettia (Euphorbia heterophylla), pigweed, palmer (palmer pigweed, Amaranthus palmeri), waterhemp (common waterhemp, Amaranthus rudis), surinam grass (Brachiaria decumbens), crabgrass, large (large crabgrass, Digitaria sanguinalis), crabgrass, Brazil (Brazilian crabgrass, Digitaria horizontalis), panicum, fall (fall panicum, Panicum dichotomiflorum), foxtail, giant (giant foxtail, Setaria faberii), foxtail, green (green foxtail, Setaria viridis), goosegrass (Eleusine indica), johnsongrass (Sorghum halepense), ragweed (common ragweed, Ambrosia elatior), barnyardgrass (Echinochloa crus-galli), sandbur (southern sandbur, Cenchrus echinatus), arrowleaf […] rhombifolia), ryegrass, Italian (Italian ryegrass, Lolium multiflorum), dayflower, VA (Virginia dayflower, Commelina virginica), field bindweed (Convolvulus arvensis), morningglory (Ipomoea coccinea), nightshade (eastern black nightshade, Solanum ptycanthum), kochia (Kochia scoparia), nutsedge, yellow (yellow nutsedge, Cyperus esculentus), cocklebur (common cocklebur, Xanthium strumarium), smartweed (ladysthumb smartweed, Polygonum Persicaria) and beggarticks (hairy beggarticks, Bidens pilosa), were planted into a silt loam soil and treated preemergence with test chemicals formulated in a non-phytotoxic solvent mixture which included a surfactant. Treated plants and controls were maintained in a greenhouse for 21 days, after which time all species were compared to controls and visually evaluated. Plant response ratings, summarized in Table E, are based on a scale of 0 to 100 where 0 is no effect and 100 is complete control. A dash (-) response means no test result.

In the next assay the test system is goosegrass. Description: Test E preemergence herbicide test. Also noted: key: 0 = no effect, 100 = complete control. It counts as in vivo, Eleusine indica.
From the text: as §1

A further assay deals with monochoria. The experiment in a line: Test F flood (paddy) test. As to conditions: 21 d, scale 0-100. Format: in vivo, Monochoria vaginalis. The procedure, abridged:
(§2)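 In this paddy assay, 2.0–2.5-leaf plants grown in sterilized Tama silt loam (2.6% organic matter) at 30/27 °C with 16-h photoperiod receive compound via the 3-cm flood water. Control is rated visually at 21 d from 0 (none) to 100 (complete), versus untreated pots.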

A further assay concerns sprangletop, Brdd. The experiment in a line: Test F flood (paddy) test. It counts as in vivo, Leptochloa fascicularis. As to conditions: 21 d, scale 0-100. The procedure, abridged:
as §2

[1] abbreviates: Preemergence, 62 g ai/ha, scale 0 to 100.
Setting [2] is: Preemergence, 125 g ai/ha, scale 0 to 100 (0 no effect, 100 complete control).
Where [3] appears, read: Preemergence, 31 g ai/ha, scale 0 to 100 (0 no effect, 100 complete control).
Setting [4] is: Preemergence, 250 g ai/ha, scale 0 to 100 (0 no effect, 100 complete control).

We go through seven compounds from US10294202B2, “Pyrrolidinones as herbicides” (FMC Corporation, priority 2013, dated 2019).

Structures are written as SMILES.

Take `O=C1NCC(c2ccc(Cl)c(Cl)c2)C1C(=O)Nc1ccccc1F` (racemic) [Compound 14]: the “Plant response rating, Bermudagrass” value with bermudagrass (setting [1]) is 90; with bermudagrass (setting [2]), 95; in the assay on bermudagrass (setting [4]), 95. Moreover, in the assay with bermudagrass (setting [3]), the “Bermudagrass plant response rating” value is listed as 75. Besides, the “Plant response rating, Beggarticks” value in the assay with beggarticks (16 g ai/ha), with beggarticks (31 g ai/ha), in the assay with beggarticks (62 g ai/ha), with beggarticks (125 g ai/ha) and in the assay on beggarticks (250 g ai/ha) was 0 each time. Also, the “Plant response rating, Goosegrass” value in the assay with goosegrass (16 g ai/ha), in the assay on goosegrass (31 g ai/ha), in the assay with goosegrass (62 g ai/ha), in the assay with goosegrass (125 g ai/ha) and in the assay with goosegrass (250 g ai/ha) was 0 each time.
`O=C1NCC(c2ccc(C(F)(F)F)cc2)C1C(=O)Nc1cccc(F)c1F` (racemic) [Compound 202]: the “Plant response rating, Beggarticks” value in the assay with beggarticks (31 g ai/ha) worked out at 0; with beggarticks (62 g ai/ha), 0; in the assay on beggarticks (125 g ai/ha), 35; with beggarticks (250 g ai/ha), 80. Besides, the “Plant response rating, Goosegrass” value with goosegrass (31 g ai/ha) is given as 35; in the assay with goosegrass (62 g ai/ha), 70; in the assay on goosegrass (125 g ai/ha) it was 90; in the assay with goosegrass (250 g ai/ha), 98.
`O=C1NCC(c2ccc(OC(F)F)cc2)C1C(=O)Nc1cccc(F)c1F` (racemic) [Compound 350]: the “Plant response rating, Beggarticks” value in the assay on beggarticks (31 g ai/ha) stood at 0; in the assay on beggarticks (62 g ai/ha), 0; with beggarticks (125 g ai/ha), 20; in the assay with beggarticks (250 g ai/ha), 20. The “Plant response rating, Goosegrass” value was 0 with goosegrass (31 g ai/ha), 0 in the assay on goosegrass (62 g ai/ha), 0 in the assay on goosegrass (125 g ai/ha) and 25 in the assay with goosegrass (250 g ai/ha).
For `O=C1NCC(c2ccc(F)c(F)c2)C1C(=O)Nc1cccc(F)c1F` (stereo not drawn) [Compound 17, N-(2,3-difluorophenyl)-4-(3,4-difluorophenyl)-2-oxo-3-pyrrolidinecarboxamide], the “Plant response rating, Bermudagrass” value in the assay with bermudagrass (Postemergence, 31 g ai/ha, scale 0 (no effect) to 100 (complete control)) came to 0; with bermudagrass (Postemergence, 62 g ai/ha, scale 0 to 100 (0 no effect, 100 complete control)), 0; with bermudagrass (Postemergence, 125 g ai/ha, scale 0 to 100 (0 no effect, 100 complete control)) it was 0; in the assay on bermudagrass (Postemergence, 250 g ai/ha, scale 0 to 100 (0 no effect, 100 complete control)), 0; with bermudagrass (setting [1]) it was 45; in the assay on bermudagrass (setting [2]), 85. Moreover, in the assay on bermudagrass (setting [4]), the “Plant response rating, Bermudagrass” value is reported as 90. The “Bermudagrass plant response rating” value in the assay with bermudagrass (setting [3]) amounted to 0. The “Plant response rating, Monochoria” value with monochoria (125 g ai/ha) turned out to be 90; in the assay on monochoria (250 g ai/ha) it was 90; in the assay on monochoria (500 g ai/ha), 95; with monochoria (1000 g ai/ha) it was 95; in the assay with monochoria (2000 g ai/ha) it was 95. Moreover, the “Plant response rating, Sprangletop, Brdd.” value in the assay on sprangletop, Brdd. (125 g ai/ha) was found to be 85; with sprangletop, Brdd. (250 g ai/ha) it was 85; with sprangletop, Brdd. (500 g ai/ha), 85; with sprangletop, Brdd. (1000 g ai/ha), 85; in the assay on sprangletop, Brdd. (2000 g ai/ha), 100. Also, the “Plant response rating, Goosegrass” value is 0 in the assay on goosegrass (16 g ai/ha); 0 with goosegrass (31 g ai/ha); 0 in the assay on goosegrass (62 g ai/ha); 0 in the assay with goosegrass (125 g ai/ha); 35 in the assay with goosegrass (250 g ai/ha).
For `O=C1NCC(c2ccc(C(F)(F)F)cc2)C1C(=O)Nc1cccc(F)c1F` (stereo not drawn) [Compound 80, N-(2,3-difluorophenyl)-2-oxo-4-[4-(trifluoromethyl)phenyl]-3-pyrrolidinecarboxamide], the “Plant response rating, Beggarticks” value was found to be 0 in the assay with beggarticks (16 g ai/ha); 0 with beggarticks (31 g ai/ha); 0 in the assay on beggarticks (62 g ai/ha); 20 in the assay on beggarticks (125 g ai/ha); 60 in the assay on beggarticks (250 g ai/ha). For the same compound, the “Plant response rating, Goosegrass” value in the assay on goosegrass (16 g ai/ha) stood at 10; with goosegrass (31 g ai/ha), 30; in the assay on goosegrass (62 g ai/ha), 60; in the assay with goosegrass (125 g ai/ha) it was 70; with goosegrass (250 g ai/ha) it was 80.
Take `O=C1NC[C@H](c2cccc(C(F)(F)F)c2)[C@H]1C(=O)Nc1ccccc1F` [Compound 204, (3R,4S)—N-(2-fluorophenyl)-2-oxo-4-[3-(trifluoromethyl)phenyl]-3-pyrrolidinecarboxamide]: the “Plant response rating, Monochoria” value is 95 in the assay with monochoria (125 g ai/ha), 100 in the assay on monochoria (250 g ai/ha) and 100 in the assay on monochoria (500 g ai/ha). Besides, the “Plant response rating, Sprangletop, Brdd.” value is reported as 98 with sprangletop, Brdd. (125 g ai/ha); 100 in the assay on sprangletop, Brdd. (250 g ai/ha); 100 in the assay on sprangletop, Brdd. (500 g ai/ha). Further, the “Plant response rating, Beggarticks” value in the assay on beggarticks (31 g ai/ha), with beggarticks (62 g ai/ha), in the assay on beggarticks (125 g ai/ha) and in the assay with beggarticks (250 g ai/ha) was 0 throughout. Further, the “Plant response rating, Goosegrass” value in the assay with goosegrass (31 g ai/ha), in the assay on goosegrass (62 g ai/ha), with goosegrass (125 g ai/ha) and with goosegrass (250 g ai/ha) was 0 in each case.
Take `O=C1NC[C@H](c2cccc(C(F)(F)F)c2)[C@H]1C(=O)Nc1cccc(F)c1F` [Compound 206]: the “Plant response rating, Monochoria” value with monochoria (64 g ai/ha) is reported as 80; in the assay on monochoria (125 g ai/ha), 90; in the assay with monochoria (250 g ai/ha) it was 100; in the assay with monochoria (500 g ai/ha), 100. Moreover, the “Plant response rating, Sprangletop, Brdd.” value turned out to be 90 with sprangletop, Brdd. (64 g ai/ha); 95 with sprangletop, Brdd. (125 g ai/ha); 100 in the assay with sprangletop, Brdd. (250 g ai/ha); 100 in the assay with sprangletop, Brdd. (500 g ai/ha). Moreover, the “Plant response rating, Beggarticks” value in the assay on beggarticks (31 g ai/ha), in the assay with beggarticks (62 g ai/ha), with beggarticks (125 g ai/ha) and with beggarticks (250 g ai/ha) was 0 each time. The “Plant response rating, Goosegrass” value with goosegrass (31 g ai/ha) worked out at 0; in the assay with goosegrass (62 g ai/ha), 0; in the assay with goosegrass (125 g ai/ha), 70; with goosegrass (250 g ai/ha) it was 90.
